# Test results: BindingDB's records for doi:10.1016/j.bmcl.2009.04.040 (The University of Texas Southwestern Medical Center At …, 2009)
# Target: Proto-oncogene Wnt-3 (Homo sapiens, UniProt P56703)
# Experiment: Inhibition of Wnt3 expressed in mouse L-cells assessed as inhibition of Wnt/catanin signaling pathway by luciferase reporter gene assay
# Sequence of Proto-oncogene Wnt-3 (P56703 whole entry): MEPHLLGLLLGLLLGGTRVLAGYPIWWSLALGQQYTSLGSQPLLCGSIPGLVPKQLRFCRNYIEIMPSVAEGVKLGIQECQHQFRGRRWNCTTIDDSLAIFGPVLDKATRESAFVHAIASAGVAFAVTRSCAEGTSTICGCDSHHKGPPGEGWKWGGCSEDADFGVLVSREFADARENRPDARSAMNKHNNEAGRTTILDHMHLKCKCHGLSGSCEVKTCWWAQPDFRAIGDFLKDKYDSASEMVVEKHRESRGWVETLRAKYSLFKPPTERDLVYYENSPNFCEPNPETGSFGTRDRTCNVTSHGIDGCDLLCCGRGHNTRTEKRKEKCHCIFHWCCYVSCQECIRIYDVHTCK
row,SMILES,EC50
1,"O=C(Nc1cccc(F)c1)c1ccc(-n2c(O)c3c(c2O)[C@H]2C=C[C@@H]3C2)cc1 [4-((1R,2S,6R,7S)-3,5-Dioxo-4-aza-tricyclo[5.2.1.0*2,6*]dec-8-en-4-yl)-N-(3-fluoro-phenyl)-benzamide]",> 25 µM
2,"O=C(Nc1ccccc1Br)c1ccc(-n2c(O)c3c(c2O)[C@H]2C=C[C@@H]3C2)cc1 [N-(2-Bromo-phenyl)-4-((1R,2S,6R,7S)-3,5-dioxo-4-aza-tricyclo[5.2.1.0*2,6*]dec-8-en-4-yl)-benzamide]",> 25 µM
3,"O=C(Nc1ccccc1Cl)c1ccc(-n2c(O)c3c(c2O)[C@H]2C=C[C@@H]3C2)cc1 [N-(2-Chloro-phenyl)-4-((1R,2S,6R,7S)-3,5-dioxo-4-aza-tricyclo[5.2.1.0*2,6*]dec-8-en-4-yl)-benzamide]",> 25 µM
4,"Cc1ccnc2c(NC(=O)[C@H]3CC[C@H](CN4C(=O)[C@@H]5[C@H](C4=O)[C@@H]4C=C[C@H]5C4)CC3)cccc12 [4-((1R,2S,6R,7S)-3,5-Dioxo-4-aza-tricyclo[5.2.1.0*2,6*]dec-8-en-4-ylmethyl)-cyclohexanecarboxylic acid(4-methyl-quinolin-8-yl)-amide]",> 25 µM
5,"O=C(Nc1ccccc1)c1ccc(-n2c(O)c3c(c2O)[C@H]2C=C[C@H]3C2)cc1 [4-((1R,2S,6R,7R)-3,5-Dioxo-4-aza-tricyclo[5.2.1.0*2,6*]dec-8-en-4-yl)-N-phenyl-benzamide]",> 25 µM
6,"O=C(Nc1cccc(Cl)c1)c1ccc(-n2c(O)c3c(c2O)[C@H]2C=C[C@@H]3C2)cc1 [N-(3-Chloro-phenyl)-4-((1R,2S,6R,7S)-3,5-dioxo-4-aza-tricyclo[5.2.1.0*2,6*]dec-8-en-4-yl)-benzamide]",> 25 µM
7,"O=C(N[C@H]1CCCC[C@@H]1O)c1ccc(-n2c(O)c3c(c2O)[C@H]2C=C[C@@H]3C2)cc1 [trans-4-((1R,2S,6R,7S)-3,5-Dioxo-4-aza-tricyclo[5.2.1.0*2,6*]dec-8-en-4-yl)-N-((2-hydroxy-cyclohexyl)-benzamide]",> 25 µM
8,"O=C(Nc1cccc(F)c1F)c1ccc(-n2c(O)c3c(c2O)[C@H]2C=C[C@@H]3C2)cc1 [N-(2,3-Difluoro-phenyl)-4-((1R,2S,6R,7S)-dioxo-4-aza-tricyclo[5.2.1.0*2,6*]dec-8-en-4-yl)-benzamide]",> 25 µM
9,"O=C(NCc1cccnc1)c1ccc(-n2c(O)c3c(c2O)[C@H]2C=C[C@@H]3C2)cc1 [4-((1R,2S,6R,7S)-3,5-Dioxo-4-aza-tricyclo[5.2.1.0*2,6*]dec-8-en-4-yl)-N-pyridin-3-ylmethyl-benzamide]",> 25 µM
10,"COc1cc(C(=O)Nc2cccc3cccnc23)ccc1-n1c(O)c2c(c1O)[C@H]1C=C[C@@H]2C1 [4-((1R,2S,6R,7S)-3,5-Dioxo-4-aza-tricyclo[5.2.1.0*2,6*]dec-8-en-4-yl)-3-methoxy-N-quinolin-8-yl-benzamide]",> 25 µM
11,"O=C(Nc1c(F)cccc1F)c1ccc(-n2c(O)c3c(c2O)[C@H]2C=C[C@@H]3C2)cc1 [N-(2,6-Difluoro-phenyl)-4-((1R,2S,6R,7S)-dioxo-4-aza-tricyclo[5.2.1.0*2,6*]dec-8-en-4-yl)-benzamide]",> 25 µM
12,"O=C(Nc1ccc(Br)cc1Br)c1ccc(-n2c(O)c3c(c2O)[C@H]2C=C[C@@H]3C2)cc1 [N-(2,4-Dibromo-phenyl)-4-((1R,2S,6R,7S)-dioxo-4-aza-tricyclo[5.2.1.0*2,6*]dec-8-en-4-yl)-benzamide]",> 25 µM
13,"O=C(Nc1ccccc1C(F)(F)F)c1ccc(-n2c(O)c3c(c2O)[C@H]2C=C[C@@H]3C2)cc1 [4-((1R,2S,6R,7S)-3,5-Dioxo-4-aza-tricyclo[5.2.1.0*2,6*]dec-8-en-4-yl)-N-(2-trifluoromethyl-phenyl)-benzamide]",> 25 µM
14,"Cc1cc(C(=O)Nc2cccc3cccnc23)ccc1-n1c(O)c2c(c1O)[C@H]1C=C[C@@H]2C1 [4-((1R,2S,6R,7S)-3,5-Dioxo-4-aza-tricyclo[5.2.1.0*2,6*]dec-8-en-4-yl)-3-methyl-N-quinolin-8-yl-benzamide]",> 25 µM
15,"O=C(Nc1cc(F)ccc1F)c1ccc(-n2c(O)c3c(c2O)[C@H]2C=C[C@@H]3C2)cc1 [N-(2,5-Difluoro-phenyl)-4-((1R,2S,6R,7S)-dioxo-4-aza-tricyclo[5.2.1.0*2,6*]dec-8-en-4-yl)-benzamide]",> 25 µM
16,"O=C(Nc1ccccc1F)c1ccc(-n2c(O)c3c(c2O)[C@H]2C=C[C@@H]3C2)cc1 [4-((1R,2S,6R,7S)-3,5-Dioxo-4-aza-tricyclo[5.2.1.0*2,6*]dec-8-en-4-yl)-N-(2-fluoro-phenyl)-benzamide]",> 25 µM

# Now from value to compound:
row,EC50,SMILES
1,0.4 µM,"O=C1[C@@H]2[C@H](C(=O)N1[C@H]1CC[C@H](C(=O)Nc3cccc4cccnc34)CC1)[C@@H]1C=C[C@H]2C1 [4-((1R,2S,6R,7S)-3,5-Dioxo-4-aza-tricyclo[5.2.1.0*2,6*]dec-8-en-4-yl)-cyclohexanecarboxylic acid quinolin-8-ylamide]"
2,10 µM,"Cc1ccc2cccnc2c1NC(=O)[C@H]1CC[C@H](CN2C(=O)[C@@H]3[C@H](C2=O)[C@@H]2C=C[C@H]3C2)CC1 [4-((1R,2S,6R,7S)-3,5-Dioxo-4-aza-tricyclo[5.2.1.0*2,6*]dec-8-en-4-ylmethyl)-cyclohexanecarboxylic acid(7-methyl-quinolin-8-yl)-amide]"
3,> 25 µM,"O=C(Nc1cccc2cccnc12)c1ccc(-n2c(O)c3c(c2O)[C@H]2C=C[C@@H]3C2)c(Cl)c1 [3-Chloro-4-((1R,2S,6R,7S)-3,5-dioxo-4-aza-tricyclo[5.2.1.0*2,6*]dec-8-en-4-yl)-N-quinolin-8-yl-benzamide]"
4,> 25 µM,"COc1cc(-n2c(O)c3c(c2O)[C@H]2C=C[C@@H]3C2)ccc1C(=O)Nc1cccc2cccnc12 [4-((1R,2S,6R,7S)-3,5-Dioxo-4-aza-tricyclo[5.2.1.0*2,6*]dec-8-en-4-yl)-2-methoxy-N-quinolin-8-yl-benzamide]"
5,4 µM,"O=C(Nc1ccc(F)cc1)c1ccc(-n2c(O)c3c(c2O)[C@H]2C=C[C@@H]3C2)cc1 [4-((1R,2S,6R,7S)-3,5-Dioxo-4-aza-tricyclo[5.2.1.0*2,6*]dec-8-en-4-yl)-N-(4-fluoro-phenyl)-benzamide]"
6,2 µM,"CO[C@@H]1CCCC[C@H]1NC(=O)c1ccc(-n2c(O)c3c(c2O)[C@H]2C=C[C@@H]3C2)cc1 [trans-4-((1R,2S,6R,7S)-3,5-Dioxo-4-aza-tricyclo[5.2.1.0*2,6*]dec-8-en-4-yl)-N-(2-methoxy-cyclohexyl)-benzamide]"
7,10 µM,"O=C(NCc1ccncc1)c1ccc(-n2c(O)c3c(c2O)[C@H]2C=C[C@@H]3C2)cc1 [4-((1R,2S,6R,7S)-3,5-Dioxo-4-aza-tricyclo[5.2.1.0*2,6*]dec-8-en-4-yl)-N-pyridin-4-ylmethyl-benzamide]"
8,9 µM,"O=C(Nc1ccc(F)cc1F)c1ccc(-n2c(O)c3c(c2O)[C@H]2C=C[C@@H]3C2)cc1 [N-(2,4-Difluoro-phenyl)-4-((1R,2S,6R,7S)-dioxo-4-aza-tricyclo[5.2.1.0*2,6*]dec-8-en-4-yl)-benzamide]"
9,10 µM,"O=C(NC1CCCc2cccnc21)c1ccc(-n2c(O)c3c(c2O)[C@H]2C=C[C@@H]3C2)cc1 (stereo partly drawn) [4-((1R,2S,6R,7S)-3,5-Dioxo-4-aza-tricyclo[5.2.1.0*2,6*]dec-8-en-4-yl)-N-(5,6,7,8-tetrahydro-quinolin-8-yl)-benzamide]"
10,10 µM,"O=C(Nc1cccc2cccnc12)N1CCC(N2C(=O)[C@@H]3[C@H](C2=O)[C@@H]2C=C[C@H]3C2)CC1 [4-((1R,2S,6R,7S)-3,5-Dioxo-4-aza-tricyclo[5.2.1.0*2,6*]dec-8-en-4-yl)-piperidine-1-carboxylic acid quinolin-8-ylamide]"
11,2 µM,"Cc1cc(-n2c(O)c3c(c2O)[C@H]2C=C[C@@H]3C2)ccc1C(=O)Nc1cccc2cccnc12 [4-((1R,2S,6R,7S)-3,5-Dioxo-4-aza-tricyclo[5.2.1.0*2,6*]dec-8-en-4-yl)-2-methyl-N-quinolin-8-yl-benzamide]"
12,9 µM,"O=C(Nc1cccc(Br)c1)c1ccc(-n2c(O)c3c(c2O)[C@H]2C=C[C@@H]3C2)cc1 [N-(3-Bromo-phenyl)-4-((1R,2S,6R,7S)-3,5-dioxo-4-aza-tricyclo[5.2.1.0*2,6*]dec-8-en-4-yl)-benzamide]"
13,0.8 µM,"Cc1ccc2cccnc2c1NC(=O)c1ccc(-n2c(O)c3c(c2O)[C@H]2C=C[C@@H]3C2)cc1 [4-((1R,2S,6R,7S)-3,5-Dioxo-4-aza-tricyclo[5.2.1.0*2,6*]dec-8-en-4-yl)-N-(7-methyl-quinolin-8-yl)-benzamide]"
14,3 µM,"O=C(Nc1ccc(Cl)cc1)c1ccc(-n2c(O)c3c(c2O)[C@H]2C=C[C@@H]3C2)cc1 [N-(4-Chloro-phenyl)-4-((1R,2S,6R,7S)-3,5-dioxo-4-aza-tricyclo[5.2.1.0*2,6*]dec-8-en-4-yl)-benzamide]"
15,20 µM,"O=C(Nc1cccc(C(F)(F)F)c1)c1ccc(-n2c(O)c3c(c2O)[C@H]2C=C[C@@H]3C2)cc1 [4-((1R,2S,6R,7S)-3,5-Dioxo-4-aza-tricyclo[5.2.1.0*2,6*]dec-8-en-4-yl)--(3-trifluoromethyl-phenyl)-benzamide]"
16,1 µM,"O=C(Nc1ccc(Br)cc1)c1ccc(-n2c(O)c3c(c2O)[C@H]2C=C[C@@H]3C2)cc1 [N-(4-Bromo-phenyl)-4-((1R,2S,6R,7S)-3,5-dioxo-4-aza-tricyclo[5.2.1.0*2,6*]dec-8-en-4-yl)-benzamide]"
17,10 µM,"O=C(Nc1ccc(Br)c(Br)c1)c1ccc(-n2c(O)c3c(c2O)[C@H]2C=C[C@@H]3C2)cc1 [N-(3,4-Dibromo-phenyl)-4-((1R,2S,6R,7S)-dioxo-4-aza-tricyclo[5.2.1.0*2,6*]dec-8-en-4-yl)-benzamide]"
18,1 µM,"COc1ccccc1NC(=O)c1ccc(-n2c(O)c3c(c2O)[C@H]2C=C[C@@H]3C2)cc1 [4-((1R,2S,6R,7S)-3,5-Dioxo-4-aza-tricyclo[5.2.1.0*2,6*]dec-8-en-4-yl)-N-(2-methoxy-phenyl)-benzamide]"
19,1 µM,"Cc1ccnc2c(NC(=O)[C@H]3CC[C@H](N4C(=O)[C@@H]5[C@H](C4=O)[C@@H]4C=C[C@H]5C4)CC3)cccc12 [4-((1R,2S,6R,7S)-3,5-Dioxo-4-aza-tricyclo[5.2.1.0*2,6*]dec-8-en-4-yl)-cyclohexanecarboxylic acid(4-methyl-quinolin-8-yl)-amide]"
20,3 µM,"O=C(Nc1ccc(F)c(F)c1)c1ccc(-n2c(O)c3c(c2O)[C@H]2C=C[C@@H]3C2)cc1 [N-(3,4-Difluoro-phenyl)-4-((1R,2S,6R,7S)-dioxo-4-aza-tricyclo[5.2.1.0*2,6*]dec-8-en-4-yl)-benzamide]"
